Patent publication US5605911A, “Use of alpha-2 adrenergic drugs to prevent adverse effects of NMDA receptor hypofunction (NRH)” (priority 1995, dated 1997)
Entries after “also recorded” stand apart in the source; their conditions may differ. Read-outs that look alike come from different tables or passages of the source.

Key:
[1] = test system: α2 receptors; conditions: in words; cited from earlier work
[2] = test system: sigma receptors; conditions: sigma and dopamine receptors; cited from earlier work
[3] = test system: PC/RS cortical neurons; assay: protection by anti-psychotic drugs against MK-801 (NRH)-induced vacuoles in rats; type: in vivo; conditions: Rattus norvegicus, Cortical neurone, ip
Experimental: Control animals received saline or DMSO, but no anti-psychotic drugs. Test animals were injected ip with an antipsychotic drug, listed above and in Table 2. Vacuoles were counted and data were processed as described in Example 1.

[4] = compared to clonidine, cited from earlier work
[5] = test system: neurotoxic side effects caused by NMDA antagonists such as PCP or MK-801; conditions: Olney et al 1991, U.S. Pat. No. 5,034,400; cited from earlier work
[6] = test system: alpha-2 adrenergic receptor; conditions: for shift of clonidine blocking curve: preliminary, combined with clonidine (n=4), yohimbine 1 mg/kg ip or rauwolscine 5 mg/kg ip
Experimental: The brains were processed and the severity of damage assessed as described in Example 1. Results were analyzed by analysis of variance (ANOVA) where the dose of xylazine was the covariate and the presence of yohimbine served as the classification (treatment) variable. The homogeneity of slopes assumption was tested by determining whether there was a significant interaction between the covariate and the treatment variable.

[7] = test system: chick embryo retina; assay: NMDA excitotoxicity in chick embryo retina segments, protection by MK-801 with or without alpha-2 agonist; type: cell-based; conditions: MK-801 500 nM; for cytopathology in retina incubated in NMDA plus MK-801, without or with α2 agonist: NMDA 40 μM, α2 agonist 500 nM to 100 μM, n=6 per condition
Experimental: These experiments were performed using segments of chick embryo retina. This is a widely used model for studying the production and prevention of excitotoxic phenomena, since it is simple and inexpensive. Chick tissue is used, since it tends to provide a better model of adult mammalian tissue than embryonic or juvenile mammalian tissue. Unlike newborn mammals, which are usually blind at birth, baby chicks can see quite well as soon as they emerge from the shell, and the NMDA receptors in chick retinal tissue are fully mature and functional.
In these tests, NMDA was introduced into the incubation medium in a concentration (40 μM) sufficient to produce a fully developed excitotoxic lesion within 30 min, displaying acute degeneration and necrosis of the majority of neurons in the inner layers of the retina.

[8] = test system: pyramidal neurons in layers III and IV of the posterior cingulate (PC) and retrosplenial (RS) cortices; assay: protection by alpha-2 adrenergic agonists against MK-801 neurotoxicity (vacuolated PC/RS neurons) in rats; conditions: for ED50: Rattus norvegicus, Pyramidal neuron, ip; for relative potency in preventing the neurotoxic reaction: ranking in words among the four α2 agonists
Source text: For each test agent, at least 17 rats were used and at least four doses tested.
The rats were sacrificed four hours after treatment, and brain tissue from the PC/RS region was histopathologically evaluated by previously described methods using double-blinded techniques (Olney et al 1991). The number of vacuolated PC and RS neurons were counted on each side of the brain at a rostrocaudal level immediately posterior to where the corpus callosum ceases decussating across the midline (approximately 5.6 mm caudal to Bregma; Paxinos & Watson, The Rat Brain in Stereotaxic Coordinates, 2d Ed., 1986).

[9] = test system: cerebral cortex; conditions: cited from earlier work
[10] = cited from earlier work
[11] = test system: people addicted to cigarettes or opiates; conditions: cited from earlier work
[12] = test system: KA and/or QUIS/AMPA classes of EAA receptors; assay: blocking of MK-801 neurotoxic side effects by non-NMDA antagonist drugs in vivo; conditions: adult rats
Source text: In addition to the foregoing classes of drugs, the Applicants have also recently discovered that non-NMDA antagonist drugs which can penetrate the BBB and block the KA and/or QUIS/AMPA classes of EAA receptors.

## Clc1ccc2nsnc2c1NC1=NCCN1 [tizanidine]
[1]
  affinity/selectivity for α2 over α1 receptors: activate α2 receptors with higher affinity than they have for α1 receptors

## CN1CCN(C2=Nc3ccccc3Oc3ccc(Cl)cc32)CC1 [Loxapine]
[2]
  receptor selectivity: interact with both dopamine receptors and sigma receptors
[3]
  ED50: 23.6 mg/kg

## N=C(N)NC(=O)Cc1c(Cl)cccc1Cl [guanfacine]
[1]
  affinity/selectivity for α2 over α1 receptors: activate α2 receptors with higher affinity than they have for α1 receptors; also recorded: substantially higher selectivity for α2 receptors (and substantially lower affinity for α1 receptors) than clonidine
[4]
  hypotensive side effects: substantially lower activity in reducing blood pressure than clonidine

## OC(CCN1CCCC1)(c1ccccc1)C1CCCCC1 (centres unmarked) [procyclidine]
[5]
  block of neurotoxic side effects caused by NMDA antagonists: can block the neurotoxic side effects caused by NMDA antagonists

## Cc1cc2c(s1)Nc1ccccc1N=C2N1CCN(C)CC1 [Olanzapine]
[3]
  ED50: 1.4 mg/kg

## O=C(CCCN1CCC(O)(c2ccc(Cl)cc2)CC1)c1ccc(F)cc1 [Haloperidol]
[2]
  receptor selectivity: interact with both dopamine receptors and sigma receptors
[3]
  ED50: 5.1 mg/kg

## C[C@](N)(Cc1ccc(O)c(O)c1)C(=O)O [alpha-methyldopa]
[1]
  affinity/selectivity for α2 over α1 receptors: activate α2 receptors with higher affinity than they have for α1 receptors

## OC(CCN1CCCCC1)(c1ccccc1)C1CCCCC1 (centres unmarked) [trihexyphenidyl]
[5]
  block of neurotoxic side effects caused by NMDA antagonists: can block the neurotoxic side effects caused by NMDA antagonists

## Cc1cccc(C(C)c2cnc[nH]2)c1C (centres unmarked) [medetomidine]
[1]
  affinity/selectivity for α2 over α1 receptors: activate α2 receptors with higher affinity than they have for α1 receptors

## CN1[C@@H]2CC[C@H]1C[C@@H](OC(c1ccccc1)c1ccccc1)C2 [benztropine]
[5]
  block of neurotoxic side effects caused by NMDA antagonists: can block the neurotoxic side effects caused by NMDA antagonists

## COC(=O)[C@H]1[C@H]2C[C@H]3c4[nH]c5ccccc5c4CCN3C[C@H]2CC[C@@H]1O [rauwolscine]
[6]
  shift of clonidine blocking curve: A similar shifting of the curve to the right

## Clc1ccc2c(c1)C(N1CCNCC1)=Nc1ccccc1O2 [Amoxapine]
[3]
  ED50: 75 mg/kg

## CC(N)C(O)c1ccc(O)c(O)c1 (stereo not drawn) [alpha-methylnoradrenaline]
[1]
  affinity/selectivity for α2 over α1 receptors: activate α2 receptors with higher affinity than they have for α1 receptors

## C[C@@H]1CN(CCCn2c3ccccc3c3ccccc32)C[C@H](C)N1 [Rimcazole]
[2]
  receptor selectivity: substantial affinity only for sigma receptors
[3]
  ED50: 17.8 mg/kg

## Cc1cccc(C)c1N=C1NCCCS1 [Xylazine]
[1]
  affinity/selectivity for α2 over α1 receptors: activate α2 receptors with higher affinity than they have for α1 receptors
[7]
  cytopathology in retina incubated in NMDA plus MK-801, without or with α2 agonist: no cytopathology
[8]; 4 h
  ED50: 2.4 mg/kg
[8]
  relative potency in preventing the neurotoxic reaction: the least potent

## CN1CCN(C2=Nc3cc(Cl)ccc3Nc3ccccc32)CC1 [Clozapine]
[3]; protection against MK-801-induced vacuoles, confidence limits 25th & 75th percentiles in separate column, read-out: ED50
  ED50: 3.2 mg/kg

## CCN1CCc2nc(N)oc2CC1 [azepexole]
[1]
  affinity/selectivity for α2 over α1 receptors: activate α2 receptors with higher affinity than they have for α1 receptors; also recorded: substantially more selectivity for α2 receptors than for α1 receptors, when compared to clonidine; also recorded: substantially higher selectivity for α2 receptors (and substantially lower affinity for α1 receptors) than clonidine

## C=CCC1(C(C)CCC)C(=O)NC(=O)NC1=O (centres unmarked) [secobarbitol]
[5]
  block of neurotoxic side effects caused by NMDA antagonists: can block the neurotoxic side effects caused by NMDA antagonists

## CCNC1(c2cccs2)CCCCC1=O (centres unmarked) [Tiletamine]
[9]; adult rat, literature
  pathomorphological changes in brain: cause pathomorphological changes in the cerebral cortex of adult rats

## Cc1ccccc1NC(=N)Nc1ccccc1C [Di(2-tolyl)guanidine, di(2-tolyl)guanidine]
[3]
  ED50: 22.2 mg/kg

## CSc1ccc2c(c1)N(CCC1CCCCN1C)c1ccccc1S2 (centres unmarked) [Thioridazine]
[2]
  receptor selectivity: interact with both dopamine receptors and sigma receptors
[3]
  ED50: 55.3 mg/kg

## CNC1(c2ccccc2Cl)CCCCC1=O (centres unmarked) [Ketamine]
[10]; ketamine, human anesthesia
  duration of action: about 15 minutes
[9]; rat, in vivo
  pathomorphological changes in brain: cause pathomorphological changes in the cerebral cortex of adult rats

## OC(CCN1CCCCC1)(c1ccccc1)C1CC2C=CC1C2 (centres unmarked) [biperiden]
[5]
  block of neurotoxic side effects caused by NMDA antagonists: can block the neurotoxic side effects caused by NMDA antagonists

## N=C(N)N/N=C/c1c(Cl)cccc1Cl [Guanabenz]
[1]
  affinity/selectivity for α2 over α1 receptors: activate α2 receptors with higher affinity than they have for α1 receptors
[8]; 4 h
  ED50: 0.21 mg/kg
[8]
  relative potency in preventing the neurotoxic reaction: intermediate

## COC(=O)[C@@H]1[C@H]2C[C@H]3c4[nH]c5ccccc5c4CCN3C[C@@H]2CC[C@@H]1O [yohimbine]
[6]
  shift of clonidine blocking curve: A similar shifting of the curve to the right
[6]; yohimbine 1 mg/kg ip with various doses of xylazine, MK-801-treated rats, F(1,42)=9.40, p=0.004
  effect on xylazine's protection: significantly interfered with xylazine's protection
[6]; yohimbine 1 mg/kg ip, MK-801-treated rats, FIG. 2
  shift of xylazine blocking curve: shifted the blocking curve to the right

## CN1CCN(C2=Nc3cc(F)ccc3Cc3ccccc32)CC1 [Fluperlapine]
[3]
  ED50: 2.3 mg/kg

## Clc1cc(I)cc(Cl)c1NC1=NCCN1 [p-Iodoclonidine]
[1]
  affinity/selectivity for α2 over α1 receptors: activate α2 receptors with higher affinity than they have for α1 receptors
[8]; 4 h
  ED50: 1.3 mg/kg
[8]
  relative potency in preventing the neurotoxic reaction: intermediate

## CC(Oc1c(Cl)cccc1Cl)C1=NCCN1 (centres unmarked) [lofexidine]
[1]
  affinity/selectivity for α2 over α1 receptors: activate α2 receptors with higher affinity than they have for α1 receptors
[11]
  reduction of withdrawal symptoms: help reduce withdrawal symptoms in some recovering addicts
[4]
  hypotensive side effects: substantially lower hypotensive side effects than clonidine; also recorded: substantially lower activity in reducing blood pressure than clonidine
[4]; listed as Lofexidine
  hypotensive side effects: reduced hypotensive side effects compared to clonidine

## NS(=O)(=O)c1cccc2c1c([N+](=O)[O-])cc1nc(O)c(O)nc12 [NBQX, 2,3-dihydroxy-6-nitro-7-sulfamoylbenzo(F)quinoxaline]
[12]
  block of neurotoxic side effects of NMDA antagonist drugs such as MK-801: can also block the neurotoxic side effects of NMDA antagonist drugs such as MK-801

## Cc1cccc([C@H](C)c2cnc[nH]2)c1C [dexmedetomidine]
[1]
  affinity/selectivity for α2 over α1 receptors: activate α2 receptors with higher affinity than they have for α1 receptors; also recorded: substantially more selectivity for α2 receptors than for α1 receptors, when compared to clonidine; also recorded: substantially higher selectivity for α2 receptors (and substantially lower affinity for α1 receptors) than clonidine

## C[C@]12N[C@H](Cc3ccccc31)c1ccccc12 [MK-801, (+)-5-methyl-10,11-dihydro-5H-di[a,d]-cyclohepten-5,10-imine]
[10]; in words
  duration of action: measured in days
[7]; regardless of α2 agonist
  protection against excitotoxic damage: completely protected against excitotoxic damage
[7]
  cytopathology in retina incubated in NMDA plus MK-801, without or with α2 agonist: no cytopathology
[8]; MK-801 0.5 mg/kg sc plus vehicle, 4 h, SEM, n=26
  mean number of vacuolated neurons per section: 223±10.5 vacuolated neurons per section
[8]; all control animals, MK-801 0.5 mg/kg sc
  neurotoxic reaction to MK-801: All control animals developed a neurotoxic reaction

## C1COC(NC(C2CC2)C2CC2)=N1 [rilmenidine]
[1]
  affinity/selectivity for α2 over α1 receptors: activate α2 receptors with higher affinity than they have for α1 receptors

## Clc1cccc(Cl)c1N=C1NCCN1 [Clonidine]
[1]
  affinity/selectivity for α2 over α1 receptors: activate α2 receptors with higher affinity than they have for α1 receptors
[7]
  cytopathology in retina incubated in NMDA plus MK-801, without or with α2 agonist: no cytopathology
[11]
  reduction of withdrawal symptoms: help reduce withdrawal symptoms in some recovering addicts
[8]; 4 h
  ED50: 0.044 mg/kg
[8]
  relative potency in preventing the neurotoxic reaction: the most potent
